Where a name gives a salt, the structure may show the parent alone. Read-outs that look alike come from different tables or passages of the source.
Experiments:
[1] = test system: fibrin-induced microglia activation; assay: Image-based assay of fibrin-induced microglia activation (HTS and dose response); format: cell-based, rat; details: for inhibition at 10 µM: Rattus norvegicus, Microglia, read-out: Fibrin % inhibition
[2] = test system: LPS-induced microglia activation; assay: Image-based assay of LPS-induced microglia activation (HTS and dose response); format: cell-based, rat; details: for inhibition at 10 µM: Rattus norvegicus, Microglia, read-out: LPS % inhibition
[3] = test system: fibrin- and LPS-induced microglia activation; assay: cells; format: cell-based, rat
primary rat microglia [4] = assay: Cell toxicity (dead cells, size <150 μm2) in LPS assay; details: for IC50: read-out: Cell Toxicity IC50 (uM) [LPS assay]
primary rat microglia [5] = assay: Cell toxicity (dead cells, size <150 μm2) in coated fibrin (cFib) assay; details: for IC50: read-out: Cell Toxicity IC50 (uM) [cFib assay];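 on Fibrin % cell toxicity: share of dead cells sized under 150 µm2 at 10 µM in fibrin-stimulated microglia HTS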
[6] = primary microglia HTS, 10 μM, fibrin-stimulated, cell size >800 μm^2 as marker of activation
[7] = primary microglia HTS, 10 μM, LPS-stimulated, cell size >800 μm^2 as marker of activation
[8] = HTS of 1907 compounds, quadrant by fibrin and LPS inhibition
[9] = primary microglia HTS, 10 μM, LPS assay, cell size <150 μm^2 as marker of toxicity
[10] = primary microglia HTS, 10 μM, fibrin assay, cell size <150 μm^2 as marker of toxicity
[11] = primary microglia HTS, fibrin stimulation, increased cell size (>800 μm^2) as marker of activation
[12] = primary microglia HTS, LPS stimulation, increased cell size (>800 μm^2) as marker of activation
[13] = quadrant by fibrin and LPS inhibition in HTS of 1907 compounds
[14] = primary microglia HTS, LPS stimulation, decreased size (<150 μm^2) as marker of toxicity
[15] = primary microglia HTS, fibrin stimulation, decreased size (<150 μm^2) as marker of toxicity
[16] = primary HTS, 10 μM, fibrin-stimulated primary microglia
[17] = primary HTS, 10 μM, LPS-stimulated primary microglia
[18] = primary HTS, 10 μM, LPS assay, dead cells size <150 μm2
[19] = primary HTS, 10 μM, fibrin assay, dead cells size <150 μm2
[20] = primary microglia HTS, fibrin stimulation, activation = cell size >800 μm2
[21] = 48 h, primary microglia HTS, LPS stimulation, activation = cell size >800 μm2
[22] = primary microglia HTS, LPS stimulation, toxicity = cell size <150 μm2
[23] = primary microglia HTS, fibrin stimulation, toxicity = cell size <150 μm2
[24] = 48 h, primary microglia HTS, LPS stimulation, increased cell size (>800 μm^2) as marker of activation

Cc1noc(NS(=O)(=O)c2ccc(N)cc2)c1C [Sulfisoxazole]
inhibition at 10 µM [1, 6]: -11%
inhibition at 10 µM [2, 7]: 6%
Quadrant (FIG. 5b) [3, 8]: Q4
LPS % cell toxicity (primary rat microglia [4]; [9]): 0%
Fibrin % cell toxicity (primary rat microglia [5]; [10]): 0%

COc1cc(C(=O)NCc2ccc(OCCN(C)C)cc2)cc(OC)c1OC [Trimethobenzamide]
inhibition at 10 µM [1, 6]: 16%
inhibition at 10 µM [2, 7]: 17%
Quadrant (FIG. 5b) [3, 8]: Q4
LPS % cell toxicity (primary rat microglia [4]; [9]): 0%
Fibrin % cell toxicity (primary rat microglia [5]; [10]): 1%

OC[C@H]1O[C@H](O[C@]2(CCl)O[C@H](CCl)[C@@H](O)[C@@H]2O)[C@H](O)[C@@H](O)[C@H]1Cl [Sucralose]
inhibition at 10 µM [1, 6]: 0%
inhibition at 10 µM [2, 7]: 16%
Quadrant (FIG. 5b) [3, 8]: Q4
LPS % cell toxicity (primary rat microglia [4]; [9]): 0%
Fibrin % cell toxicity (primary rat microglia [5]; [10]): 1%

C=C1c2c(Cl)ccc(O)c2C(=O)C2=C(O)[C@]3(O)C(=O)C(C(N)=O)=C(O)[C@@H](N(C)C)[C@@H]3[C@@H](O)[C@H]12.O=C(O)c1cc(S(=O)(=O)O)ccc1O [Meclocycline Sulfosalicylate]
Fibrin % inhibition [1, 11]: 20%
LPS % inhibition [2, 12]: 18%
Quadrant (FIG. 5b) [3, 13]: Q4
LPS % cell toxicity (primary rat microglia [4]; [14]): 0%
Fibrin % cell toxicity (primary rat microglia [5]; [15]): 1%

C[C@@H]1C[C@H]2[C@@H]3CCC4=CC(=O)C=C[C@]4(C)[C@@]3(F)[C@@H](O)C[C@]2(C)[C@H]1C(=O)CO [Desoxymetasone]
Fibrin % inhibition [1, 11]: 108%
LPS % inhibition [2, 12]: 105%
Quadrant (FIG. 5b) [3, 13]: Q2
LPS % cell toxicity (primary rat microglia [4]; [14]): 3%
Fibrin % cell toxicity (primary rat microglia [5]; [15]): 3%

NC(N)=O [Urea]
Fibrin % inhibition [1, 6]: −14%
LPS % inhibition [2, 7]: 20%
Quadrant (FIG. 5b) [3, 8]: Q4
LPS % cell toxicity (primary rat microglia [4]; [9]): 0%
Fibrin % cell toxicity (primary rat microglia [5]; [10]): 1%

CC1(C)[C@@H](OC(=O)CCC(=O)O)CC[C@]2(C)[C@H]3C(=O)C=C4[C@@H]5C[C@@](C)(C(=O)O)CC[C@]5(C)CC[C@@]4(C)[C@]3(C)CC[C@@H]12 [Carbenoxolone Sodium]
inhibition at 10 µM [1, 16]: 16%
inhibition at 10 µM [2, 17]: 6%
Quadrant (FIG. 5b) ([3]; primary HTS, 10 μM): Q4
LPS % cell toxicity (primary rat microglia [4]; [18]): 0%
Fibrin % cell toxicity (primary rat microglia [5]; [19]): 0%

O=C1OC2(c3ccc(O)cc3Oc3cc(O)ccc32)c2ccccc21 [Fluorescein]
inhibition at 10 µM [1, 20]: -3%
inhibition at 10 µM [2, 21]: 4%
Quadrant (FIG. 5b) [3, 13]: Q4
LPS % cell toxicity (primary rat microglia [4]; [22]): 0%
Fibrin % cell toxicity (primary rat microglia [5]; [23]): 0%

CCOC(=O)NNc1nncc2ccccc12 [Todralazine Hydrochloride]
inhibition at 10 µM [1, 6]: 0%
inhibition at 10 µM [2, 7]: 19%
Quadrant (FIG. 5b) [3, 8]: Q4
LPS % cell toxicity (primary rat microglia [4]; [9]): 0%
Fibrin % cell toxicity (primary rat microglia [5]; [10]): 1%

C1N2CN3CN1CN(C2)C3 [Hexamethylenetetramine]
inhibition at 10 µM [1, 20]: -9%
inhibition at 10 µM [2, 21]: 20%
Quadrant (FIG. 5b) [3, 13]: Q4
LPS % cell toxicity (primary rat microglia [4]; [22]): 0%
Fibrin % cell toxicity (primary rat microglia [5]; [23]): 1%

C=C[C@@]1(C)CC(=O)[C@]2(O)[C@@]3(C)[C@@H](O)CCC(C)(C)[C@@H]3[C@H](O)[C@H](OC(C)=O)[C@@]2(C)O1 [Colforsin]
inhibition at 10 µM [1, 16]: 46%
inhibition at 10 µM [2, 17]: 26%
Quadrant (FIG. 5b) ([3]; primary HTS, 10 μM): Q4
LPS % cell toxicity (primary rat microglia [4]; [18]): 0%
Fibrin % cell toxicity (primary rat microglia [5]; [19]): 1%

Cc1cc2c(OCC(CNC(C)(C)C)OC(=O)c3ccccc3)cccc2[nH]1 (stereo not shown) [Bopindolol]
inhibition at 10 µM [1, 11]: 105%
inhibition at 10 µM [2, 24]: 81%
Quadrant (FIG. 5b) [3, 13]: Q2
LPS % cell toxicity (primary rat microglia [4]; [14]): 2%
Fibrin % cell toxicity (primary rat microglia [5]; [15]): 6%

CC(=O)[C@@]12O[C@](C)(c3ccccc3)O[C@@H]1C[C@H]1[C@@H]3CCC4=CC(=O)CC[C@]4(C)[C@H]3CC[C@@]12C [Algestone acetophenide, reference compound]
Fibrin Selectivity [1]: 9
Fibrin Selectivity (LOG10) [1]: 0.95
IC50 ([1]; Table 1, dose response 0.001-20 μM, triplicates, primary rat microglia, 48 h, read-out: Fibrin IC50): 1 µM
IC50 ([1]; Table 3, read-out: Fibrin IC50 (uM) (Suppl. Table 7)): 1 µM
IC50 ([1]; dose response, fibrin-induced microglia activation, read-out: Fibrin IC50): 1 µM
IC50 ([1]; fibrin-induced microglia activation, dose response, read-out: Fibrin IC50 (uM) (Suppl. Table 7)): 1 µM
Fibrin % inhibition [1, 11]: 62%
IC50 ([2]; LPS-induced microglia activation, dose response, read-out: LPS IC50 (uM) (Suppl. Table 7)): 9 µM
IC50 ([2]; Table 1, dose response 0.001-20 μM, triplicates, primary rat microglia, 48 h, read-out: LPS IC50): 9 µM
IC50 ([2]; Table 3, read-out: LPS IC50 (uM) (Suppl. Table 7)): 9 µM
IC50 ([2]; dose response, LPS-induced microglia activation, read-out: LPS IC50): 9 µM
LPS % inhibition [2, 12]: 61%
Hit ([3]; HTS hit classification): HIT (Hits were defined as molecules that exhibited greater than 50% inhibition of either fibrin or LPS activation)
Quadrant (FIG. 5b) [3, 8]: Q2
Quadrant (FIG. 5b) ([3]; Table 1, screen at 10 μM): Q2
Cherry-picked Hit (Suppl. Table 7) ([3]; Table 3): HIT (Hits were defined as molecules that exhibited greater than 50% inhibition of either fibrin or LPS activation)
Quadrant (FIG. 5b) ([3]; Table 3, screen at 10 μM): Q2
Cherry-picked Hit (Suppl. Table 7) ([3]; hit classification in microglia HTS): HIT (Hits were defined as molecules that exhibited greater than 50% inhibition of either fibrin or LPS activation)
Quadrant (FIG. 5b) [3, 13]: Q2
LPS % cell toxicity (primary rat microglia [4]; [14]): 2%
IC50 (primary rat microglia [4]; LPS assay): > 20 µM
IC50 (primary rat microglia [4]; Table 3): > 20 µM
Fibrin % cell toxicity (primary rat microglia [5]; [15]): 1%
IC50 (primary rat microglia [5]; Table 3): > 20 µM
IC50 (primary rat microglia [5]; cFib assay): > 20 µM

CN1[C@@H]2CC[C@H]1C[C@@H](OC(=O)c1c[nH]c3ccccc13)C2 [Tropisetron]
inhibition at 10 µM [1, 6]: -28%
inhibition at 10 µM [2, 7]: 14%
Quadrant (FIG. 5b) [3, 8]: Q4
LPS % cell toxicity (primary rat microglia [4]; [9]): 0%
Fibrin % cell toxicity (primary rat microglia [5]; [10]): 0%

CCCCC(=O)N(Cc1ccc(-c2ccccc2-c2nnn[nH]2)cc1)[C@H](C(=O)O)C(C)C [Valsartan]
inhibition at 10 µM [1]: -17%
inhibition at 10 µM [2]: 12%
Quadrant (FIG. 5b) [3, 8]: Q4
LPS % cell toxicity (primary rat microglia [4]; [9]): 0%
Fibrin % cell toxicity (primary rat microglia [5]; [10]): 0%

Oc1noc2c1CCNC2 [Gaboxadol]
inhibition at 10 µM [1, 20]: -43%
inhibition at 10 µM [2, 21]: 3%
Quadrant (FIG. 5b) [3, 13]: Q4
LPS % cell toxicity (primary rat microglia [4]; [22]): 0%
Fibrin % cell toxicity (primary rat microglia [5]; [23]): 0%

COc1ccc2cc1Oc1ccc(cc1)C[C@H]1c3c(cc4c(c3Oc3cc5c(cc3OC)CCN(C)[C@@H]5C2)OCO4)CCN1C [Cepharanthine]
inhibition at 10 µM [1, 11]: 114%
inhibition at 10 µM [2, 24]: 130%
Quadrant (FIG. 5b) [3, 13]: Q2
LPS % cell toxicity (primary rat microglia [4]; [14]): 58%
Fibrin % cell toxicity (primary rat microglia [5]; [15]): 85%

CCCCCC(=O)O[C@]1(C(C)=O)CC[C@H]2[C@@H]3CCC4=CC(=O)CC[C@]4(C)[C@H]3CC[C@@]21C [Hydroxyprogesterone Caproate]
inhibition at 10 µM [1, 20]: 22%
inhibition at 10 µM [2, 21]: 25%
Quadrant (FIG. 5b) [3, 13]: Q4
LPS % cell toxicity (primary rat microglia [4]; [22]): 0%
Fibrin % cell toxicity (primary rat microglia [5]; [23]): 1%

CC(=O)NC1CCSC1=O (stereo not shown) [Citiolone]
inhibition at 10 µM [1, 16]: -32%
inhibition at 10 µM [2, 17]: 7%
Quadrant (FIG. 5b) ([3]; primary HTS, 10 μM): Q4
LPS % cell toxicity (primary rat microglia [4]; [18]): 0%
Fibrin % cell toxicity (primary rat microglia [5]; [19]): 0%

CCNC(=O)/C=C/c1cccc(Br)c1 [Cinromide]
inhibition at 10 µM [1, 16]: -10%
inhibition at 10 µM [2, 17]: 13%
Quadrant (FIG. 5b) ([3]; primary HTS, 10 μM): Q4
LPS % cell toxicity (primary rat microglia [4]; [18]): 0%
Fibrin % cell toxicity (primary rat microglia [5]; [19]): 1%

C=COCC(F)(F)F [Fluroxene]
inhibition at 10 µM [1, 20]: -19%
inhibition at 10 µM [2, 21]: 11%
Quadrant (FIG. 5b) [3, 13]: Q4
LPS % cell toxicity (primary rat microglia [4]; [22]): 0%
Fibrin % cell toxicity (primary rat microglia [5]; [23]): 0%

CC(=O)NS(=O)(=O)c1ccc(N)cc1 [Sulfacetamide]
inhibition at 10 µM [1, 6]: -2%
inhibition at 10 µM [2, 7]: 10%
Quadrant (FIG. 5b) [3, 8]: Q4
LPS % cell toxicity (primary rat microglia [4]; [9]): 0%
Fibrin % cell toxicity (primary rat microglia [5]; [10]): 1%

CC1(C)O[C@@H]2C[C@H]3[C@@H]4CCC5=CC(=O)CC[C@]5(C)[C@@]4(F)[C@@H](O)C[C@]3(C)[C@]2(C(=O)CCl)O1 [Halcinonide]
inhibition at 10 µM [1, 11]: 103%
inhibition at 10 µM [2, 24]: 95%
Quadrant (FIG. 5b) [3, 13]: Q2
LPS % cell toxicity (primary rat microglia [4]; [14]): 2%
Fibrin % cell toxicity (primary rat microglia [5]; [15]): 8%

Colistin Sulfate
Fibrin % inhibition [1, 11]: 19%
LPS % inhibition [2, 12]: 58%
Quadrant (FIG. 5b) [3, 13]: Q1
LPS % cell toxicity (primary rat microglia [4]; [14]): 1%
Fibrin % cell toxicity (primary rat microglia [5]; [15]): 1%

CC1=C(C(=O)O)N2C(=O)[C@@H](NC(=O)[C@H](N)C3=CCC=CC3)[C@H]2SC1 [Cephradine]
inhibition at 10 µM [1, 16]: -26%
inhibition at 10 µM [2, 17]: -1%
Quadrant (FIG. 5b) ([3]; primary HTS, 10 μM): Q4
LPS % cell toxicity (primary rat microglia [4]; [18]): 0%
Fibrin % cell toxicity (primary rat microglia [5]; [19]): 0%

— patent US20210330611A1, “THERAPY FOR NEUROLOGICAL DISEASES/DISORDERS” (priority 2020, published 2021)
